Laboratory results taken from article PMC6933707, “Palmitoylethanolamide counteracts substance P-induced mast cell activation in vitro by stimulating diacylglycerol lipase activity” (Journal of Neuroinflammation, 2019).

Key:
[1] = target: human CB2 receptor (Homo sapiens, UniProt P34972); assay: cAMP Hunter functional activity assay at the CB2 receptors; format: cell-based; parameters: host or cells: CHO-K1; details: 2-AG alone, CHO-K1 cells overexpressing human CB2; read-out: IC50, reduction of NKH-477-induced cAMP levels
Procedure: The cAMP Hunter™ eXpress G protein-coupled receptor (GPCR) assay was performed in Chinese Hamster Ovary (CHO)-Kl cells overexpressing the human CB2 receptor. Gi-coupled cAMP modulation was measured following the manufacturer’s protocol (DiscoverX, Fremont, CA). CHO-K1 cells overexpressing the human CB2 receptor were plated into a 96-well plate (3× 10^4 cells/well) and incubated overnight at 37 °C in 5% CO2 atmosphere. The media were aspirated and replaced with 30 μl of assay buffer. Cells were incubated 30 min at 37 °C with 15 μl of 3× concentration-response solutions of 2-AG (0.01–50 μM), or PEA (10 μM), prepared in presence of cell assay buffer containing a 3× of 25 μM NKH-477 solution (a water-soluble analog of Forskolin) to stimulate adenylate cyclase and enhance basal cAMP levels. We also investigated the effect of PEA on 2-AG receptor activation by co-incubation. Therefore, cells were also incubated 30 min at 37 °C with 2-AG and PEA (10 μM) in the presence of NKH-477 to stimulate adenylate cyclase and enhance cAMP levels. […] Relative luminescence units (RLU) were measured by using a GloMax Multi Detection System (Promega Italia). […] The percentage of response was calculated by using the following formula: % RESPONSE = 100% × (1-(RLU of test compound-RLU of NKH-477 positive control)/(RLU of vehicle-RLU of NKH-477 positive control).

[2] = tested on: RBL-2H3 cells; assay: Histamine release assay (ELISA); format: cell-based, rat
Procedure: (§1) RBL-2H3 cells were plated into 24-well culture dishes at a cell density of 2 × 10^5 cells per well, or into 6-well culture dishes at a cell density of 9 × 10^5 cells per well, for 1 day at 37 °C in 5% CO2 atmosphere. After 1 day, RBL-2H3 cells were stimulated with SP (10 μM) or vehicle (water) and incubated for 15 min at 37 °C in 5% CO2 atmosphere.
SP-stimulated RBL-2H3 cells (2 × 10^5 cells/well) were treated with PEA (10 μM) or vehicle (methanol) for 15 min at 37 °C in 5% CO2 atmosphere. SP-stimulated RBL-2H3 cells were also treated with a CB2 antagonist, AM630 (0.1 μM), in the presence and absence of PEA (10 μM), or JWH133 (0.1 μM) (a CB2 synthetic agonist), and incubated for the indicated time. SP-stimulated RBL-2H3 cells were also treated with 2-AG (0.1 and 1 μM), or co-treated with PEA (0.1 μM) and 2-AG (0.1 μM), and incubated for the indicated time. SP-stimulated RBL-2H3 cells were also co-treated with PEA (10 μM) and OMDM188 (10 μM) (a DAGL inhibitor), and incubated for the indicated time. After 15 min, the supernatants were collected and the amounts of secreted histamine were measured by using a histamine ELISA kit according to the manufacturer’s instructions (Abnova) and by using a reader GENios Pro (Tecan). Data were expressed as nanograms per milliliter of histamine.

[3] = tested on: RBL-2H3 cells; assay: Toluidine blue staining, percentage of degranulation; format: cell-based, rat
Procedure: SP-stimulated RBL-2H3 cells [plated on poly-L-lysine (33 μg/ml) coated slides (Deckglaser, 21 × 26 mm) into 6-well culture dishes at a cell density of 9 × 10^5 cells per well] were treated and incubated as described above for histamine release assay. After 15 min, the cells were fixed with paraformaldehyde at 4% for 20 min and incubated for 3 min with toluidine blue at 0.01% in 3% acetic acid. Subsequently, a 5 min wash in distilled water and dehydration in increasing alcohols (90%, 100%) were performed. Cells were then clarified by treatment with Xylol for 5 min and finally dried slides were mounted with the DPX histogram upright. The cells were observed using a Leica DMI6000 digital microscope, acquired using the Leica DFC 340FX digital camera connected to the microscope and analyzed using the LAS AF 2.2.0 software. Degranulated RBL-2H3 cells were counted and the percentage of degranulation (based on the number of colorable cells) was calculated.

[4] = tested on: RBL-2H3 cells; assay: as above; format: cell-based, rat; details: compound alone 0.1 μM, in the absence of SP (data not shown)
[5] = tested on: RBL-2H3 cells; assay: LC-APCI-MS measurement of endogenous AEA, 2-AG and PEA levels; format: cell-based, rat; details: for decrease of endogenous levels of 2-AG: OMDM188 10 μM in the presence of PEA 10 μM
Procedure: RBL-2H3 cells (9 × 10^5 cells/well) were stimulated with SP (10 μM) and treated with PEA (10 μM) in the presence and absence of OMDM188 (10 μM), for 15 min at 37 °C in 5% CO2 atmosphere. After 15 min, cells and supernatants were collected and homogenized in a solution of CHCl3/CH3OH/Tris-HCl 50 mM pH 7.4 (2:1:1, v/v) containing 10 pmol of [^2H]8-AEA, [^2H]5-2-AG and [^2H]4-PEA as internal standards. The lipid-containing organic phase was dried down, weighed and pre-purified by open-bed chromatography on silica gel. Fractions obtained by eluting the column with a solution of CHCl3/CH3OH (90:10 by vol.) were analyzed by Liquid Chromatography-Atmospheric Pressure Chemical Ionization-Mass Spectrometry (LC-APCI-MS) using a Shimadzu (Shimadzu, Kyoto, Japan) HPLC apparatus (LC-10ADVP) coupled to a Shimadzu (LCMS-2020) quadrupole MS via a Shimadzu APCI interface. LC-APCI-MS analyses of 2-AG and PEA were carried out in the selected ion monitoring mode, using m/z values of 356 and 348 (molecular ions + 1 for deuterated and undeuterated AEA), 384.35 and 379.35 (molecular ions + 1 for deuterated and undeuterated 2-AG), and 304 and 300 (molecular ions + 1 for deuterated and undeuterated PEA). AEA, 2-AG and PEA levels were calculated on the basis of their area ratio with the internal deuterated standard signal areas, and their amounts (pmol) were normalized per mg of lipid extract.

[6] = tested on: RBL-2H3 cells; assay: Quantitative real-time PCR of PEA/2-AG receptors and metabolic enzymes; format: cell-based, rat; details: cells stimulated 15 min with SP 10 μM or PEA 10 μM or both, vs unstimulated
From the text: The mRNA expression of PEA target genes (Cnr1, Cnr2, Trpv1, Ppara, and Gpr55), as well as PEA and 2-AG biosynthetic (N-acyl phosphatidylethanolamine-specific phospholipase D, Napepld, Dagla and Daglb) and catabolic enzyme genes (fatty acid amide hydrolase, Faah; N-acylethanolamine-hydrolyzing acid amidase, Naaa; and monoacylglycerol lipase, Mgl), was studied by comparison of transcriptional expression in unstimulated RBL-2H3 cells (plated on 100 mm diameter Petri dishes) vs. the expression of these targets and enzymes in RBL-2H3 cells treated with PEA (10 μM), or stimulated with SP (10 μM) in the presence and absence of PEA (10 μM), for 15 min at 37 °C in 5% CO2 atmosphere. Total RNA was purified, quantified and reverse transcribed as previously reported. For each target, all mRNA sequences were aligned and common primers were designed (Table 1). Quantitative real-time PCR was performed by an iCycler-iQ5 in a 20 μl reaction mixture using 20 ng of cDNA. Assays were performed in quadruplicate (maximum ΔCt of replicate samples < 0.5). Optimized primers for SYBR-green analysis and optimum annealing temperatures were designed by the Allele-Id software version 7.0 (Biosoft International) and were synthesized (HPLC-purification grade) by MWG-Biotech. […] Results were expressed as fold expression compared with a reference condition (2^^−∆∆ct formula).

[7] = tested on: RBL-2H3 cells; assay: β-Hexosaminidase release assay; format: cell-based, rat; details: substance alone 10 μM, 15 min, vs vehicle-treated cells
Procedure: as §1
SP-stimulated RBL-2H3 cells (2 × 10^5 cells/well) were treated with PEA (0.1, 0.5, 1, and 10 μM) or vehicle (methanol, max 0.1%) for 15 min at 37 °C in 5% CO2 atmosphere. After 15 min, the supernatants (15 μl) were transferred to 96-well plates and incubated with 60 μl of substrate (1 mM p-nitrophenyl-N-acetyl-β-D-glucosaminide in citrate 0.05 M, pH 4.5) for 1 h at 37 °C. To determine the total amount of released β-hexosaminidase, the cells were lysed with 0.1% Triton X-100 and incubated with substrate using the same procedure as for the determination of the activity in the supernatants. The reaction was stopped by adding 150 μl of 0.1 M sodium bicarbonate buffer (pH 10.0), and the reaction product was monitored by measuring the optical density (OD) at 405 nm by using a reader GENios Pro (Tecan). The results were expressed as % of the total β-hexosaminidase content of the cells determined by cell lysis with 0.1% Triton X-100, and calculated by using the following formula: % degranulation = [ODsupernatant/(ODsupernatant + ODtriton x−100)] × 100.

[8] = SP (10 μM)-stimulated cells, compound 0.1 μM, 15 min, vs SP + vehicle
[9] = SP (10 μM)-stimulated cells, compound 1 μM, 15 min, vs SP + vehicle
[10] = compound alone 0.1 μM, in the absence of SP (data not shown)
[11] = SP-stimulated cells treated with OMDM188 10 μM in the presence of PEA 10 μM, vs SP + vehicle

human CB2 receptor, sequence (P34972 whole entry): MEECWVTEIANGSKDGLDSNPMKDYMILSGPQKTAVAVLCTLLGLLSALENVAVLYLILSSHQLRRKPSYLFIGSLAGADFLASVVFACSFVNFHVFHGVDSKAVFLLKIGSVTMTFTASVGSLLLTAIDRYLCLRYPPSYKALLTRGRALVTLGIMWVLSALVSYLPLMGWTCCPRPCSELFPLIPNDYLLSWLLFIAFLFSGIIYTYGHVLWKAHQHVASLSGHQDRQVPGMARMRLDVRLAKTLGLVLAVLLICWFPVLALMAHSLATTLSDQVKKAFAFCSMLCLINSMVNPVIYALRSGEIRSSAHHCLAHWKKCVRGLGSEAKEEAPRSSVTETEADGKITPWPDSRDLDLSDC

Compound: CCCCC/C=C\C/C=C\C/C=C\C/C=C\CCCC(=O)OC(CO)CO [2-AG, 2-arachidonoylglycerol]
- IC50 [1]: 590 ± 160 nM
- histamine release [2, 8]: comparable
- histamine release [2, 9]: able to reduce
- number of degranulated cells [3, 8]: comparable
- degranulation [3, 9]: able to reduce

Compound: COc1ccc(C(=O)c2c(C)n(CCN3CCOCC3)c3cc(I)ccc23)cc1 [AM630]
- histamine release [2, 8]: comparable
- histamine release [2, 10]: No effect
- number of degranulated cells [3, 8]: comparable

Compound: CCCC(C)(C)c1ccc2c(c1)OC(C)(C)[C@@H]1CC=C(C)C[C@@H]21 [JWH133]
- histamine release [2, 8]: inhibited the release of histamine
- histamine release ([2]; SP-stimulated cells co-treated with JWH133 0.1 μM and AM630 0.1 μM, vs SP + vehicle): comparable
- histamine release [2, 10]: No effect
- number of degranulated cells [3, 8]: reduced the number of SP-degranulated RBL-2H3 cells
- number of degranulated cells ([3]; SP-stimulated cells co-treated with JWH133 0.1 μM and AM630 0.1 μM, vs SP + vehicle or SP + AM630): comparable
- degranulation [4]: no effect

Compound: CCCCCCCCCCC[C@@H](C[C@@H]1OC(=O)[C@H]1CCCCCC)OC(=O)[C@@H](NC=O)[C@@H](C)CC [OMDM188]
- histamine release [2, 11]: comparable
- decrease of endogenous levels of 2-AG ([5]; SP-stimulated cells, compared to SP + PEA only): 2.5 fold
- decrease of endogenous levels of 2-AG ([5]; unstimulated cells, compared to PEA 10 μM alone): 2.4 fold
- number of degranulated cells [3, 11]: comparable

Compound: substance P [SP]
- mRNA expression of Cnr2, Napepld, Naaa, Daglb, Faah and Mgl [6]: no statistically significant change
- β-hexosaminidase release [7]: significantly released
- histamine release ([2]; substance alone 10 μM, 15 min, vs vehicle-treated cells): significantly released
- endogenous levels of AEA, 2-AG, and PEA ([5]; SP 10 μM for 15 min, vs vehicle): did not change
- number of degranulated cells ([3]; substance alone 10 μM, 15 min, vs vehicle): increased the number of degranulated RBL-2H3 cells
